According to PubChem BioAssay (NCI):
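Values below derive from 48-hour exposures of cells grown in 96-well plates, with endpoints linearly interpolated between the two concentrations bracketing the appropriate inhibition level. TGI: concentration producing complete growth inhibition.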

Columns and labels:
Assay in all cases: NCI tumour cell line growth inhibition, 48 h
A498 renal = system: A498 renal
A549 NSCLC = system: A549 NSCLC
ACHN renal = system: ACHN renal
CAKI-1 renal = system: CAKI-1 renal
CCRF-CEM leukemia = system: CCRF-CEM leukemia
COLO 205 colon = system: COLO 205 colon
DU-145 prostate = system: DU-145 prostate
HCC-2998 colon = system: HCC-2998 colon
HCT-116 colon = system: HCT-116 colon
HCT-15 colon = system: HCT-15 colon
HL-60(TB) leukemia = system: HL-60(TB) leukemia
HOP-62 NSCLC = system: HOP-62 NSCLC
HS 578T breast = system: HS 578T breast
HT29 colon = system: HT29 colon
K-562 leukemia = system: K-562 leukemia
LOX IMVI melanoma = system: LOX IMVI melanoma
M14 melanoma = system: M14 melanoma
MCF7 breast = system: MCF7 breast
MDA-MB-231 breast = system: MDA-MB-231 breast
MOLT-4 leukemia = system: MOLT-4 leukemia
NCI-H226 lung = system: NCI-H226 lung
NCI-H23 lung = system: NCI-H23 lung
NCI-H460 lung = system: NCI-H460 lung
NCI-H522 lung = system: NCI-H522 lung
NCI/ADR-RES ovarian = system: NCI/ADR-RES ovarian
OVCAR-3 ovarian = system: OVCAR-3 ovarian
OVCAR-4 ovarian = system: OVCAR-4 ovarian
OVCAR-5 ovarian = system: OVCAR-5 ovarian
OVCAR-8 ovarian = system: OVCAR-8 ovarian
PC-3 prostate = system: PC-3 prostate
RPMI-8226 leukemia = system: RPMI-8226 leukemia
SF-295 CNS = system: SF-295 CNS
SK-MEL-2 melanoma = system: SK-MEL-2 melanoma
SK-MEL-28 melanoma = system: SK-MEL-28 melanoma
SK-MEL-5 melanoma = system: SK-MEL-5 melanoma
SK-OV-3 ovarian = system: SK-OV-3 ovarian
SN12C renal = system: SN12C renal
SNB-19 CNS = system: SNB-19 CNS
SR leukemia = system: SR leukemia
SW-620 colon = system: SW-620 colon
T-47D breast = system: T-47D breast
TK-10 renal = system: TK-10 renal
U251 CNS = system: U251 CNS
UACC-257 melanoma = system: UACC-257 melanoma
UO-31 renal = system: UO-31 renal

Measured: TGI

CC(=O)OC(OC(C)=O)n1cc(C=O)c2ccccc21
> 100 µM: all assays above
